The source of these data is PubChem BioAssay AID336 (DTP/NCI, 2004).

“And” between values parts separate entries of the source, which are not always exact repeats. Equal entries are not always repeated. Toxic doses and inconclusive results are not listed.

In the experiment the test system is BDF1 mice, P388/VCR leukemia ip, median survival T/C. The experiment in a line: NCI In Vivo Anticancer Drug Screen. Data for tumor model P388 Leukemia resistant to Vincristine; NSC 67574 (intraperitoneal) in B6D2F1 (BDF1) mice. The following applies: endpoint: median survival time, higher = longer survival. As for the experimental part:
The antitumor activity of compounds was measured in mice bearing transplantable tumors. Survival or tumor size were measured and the results are expressed as the measurement made in the treated group (T) divided by the measurement made in the vehicle treated control group (C). The tumor model used in this assay is P388 Leukemia resistant to Vincristine; NSC 67574 (intraperitoneal) in B6D2F1 (BDF1) mice

Where [1] appears, read: dose: 0.5 mg/kg/injection, schedule: Q01DX010 (ip), vehicle: saline.
Setting [2] is: dose: 1.0 mg/kg/injection, schedule: Q01DX010 (ip), vehicle: saline.
[3] abbreviates: dose: 31.3 mg/kg/injection, schedule: Q01DX010 (ip), vehicle: saline.
The mark [4] stands for this setting: dose: 62.5 mg/kg/injection, schedule: Q01DX010 (ip), vehicle: saline.
Setting [5] is: dose: 125.0 mg/kg/injection, schedule: Q01DX010 (ip), vehicle: saline.
The mark [6] stands for this setting: dose: 60.0 mg/kg/injection, schedule: Q01DX010 (ip), vehicle: saline.
Where [7] appears, read: dose: 120.0 mg/kg/injection, schedule: Q01DX010 (ip), vehicle: saline.
Where [8] appears, read: dose: 15.0 mg/kg/injection, schedule: Q01DX010 (ip), vehicle: saline.
The mark [9] stands for this setting: dose: 30.0 mg/kg/injection, schedule: Q01DX010 (ip), vehicle: saline.

Regarding `CC(=O)O[C@H]1C(=O)[C@@]2(C)[C@H]([C@H](OC(=O)c3ccccc3)[C@]3(O)C[C@H](OC(=O)[C@H](O)[C@@H](NC(=O)c4ccccc4)c4ccccc4)C(C)=C1C3(C)C)[C@]1(OC(C)=O)CO[C@@H]1C[C@@H]2O`, the T/C reads like this: (dose: 21.6 mg/kg/injection, schedule: Q04DX003 (ip), vehicle: Klucel (hydroxypropylcellulose) (HPC)) 98 % of control; (dose: 36.0 mg/kg/injection, schedule: Q04DX003 (ip), vehicle: Klucel (hydroxypropylcellulose) (HPC)) 93 % of control; (dose: 60.0 mg/kg/injection, schedule: Q04DX003 (ip), vehicle: Klucel (hydroxypropylcellulose) (HPC)) 87 % of control.

For `C[C@H]1C(=O)O[C@@H]2CCN3CC=C(COC(=O)[C@](C)(O)[C@@]1(C)O)[C@H]23`, the T/C is 108 % of control (dose: 1.56 mg/kg/injection, schedule: Q01DX010 (ip), vehicle: saline); 112 % of control (dose: 3.13 mg/kg/injection, schedule: Q01DX010 (ip), vehicle: saline); 91 % of control (dose: 6.25 mg/kg/injection, schedule: Q01DX010 (ip), vehicle: saline); 100 % of control (dose: 12.5 mg/kg/injection, schedule: Q01DX010 (ip), vehicle: saline).

For the molecule `CS(=O)(=O)OCCN(CCOS(C)(=O)=O)c1ccc(N=O)cc1`, the T/C is 150 % of control under setting [1] and 150 % of control under setting [2].

On to `CN(C)c1nc(N(C)C)nc(N(C)C)n1`, for which the T/C reads like this: (dose: 18.8 mg/kg/injection, schedule: Q01DX010 (ip), vehicle: saline) 100 % of control; (dose: 37.5 mg/kg/injection, schedule: Q01DX010 (ip), vehicle: saline) 100 % of control; (dose: 75.0 mg/kg/injection, schedule: Q01DX010 (ip), vehicle: saline) 100 % of control; (dose: 150.0 mg/kg/injection, schedule: Q01DX010 (ip), vehicle: saline) 104 % of control.

On to `COc1ccc(CC2C(=O)NC(C)C(=O)N(C)C3Cc4ccc(cc4)Oc4cc(ccc4O)CC(C(=O)NC(C)C(=O)NC(C)C(=O)N2C)N(C)C3=O)cc1` (stereo not drawn), for which the T/C was 108 % of control (dose: 4.32 mg/kg/injection, schedule: Q04DX003 (ip), vehicle: other) and 103 % of control (dose: 7.2 mg/kg/injection, schedule: Q04DX003 (ip), vehicle: other).

Turning to `CC[C@H]1CN2CCc3cc(OC)c(OC)cc3[C@@H]2C[C@@H]1C[C@@H]1c2cc(OC)c(OC)cc2CCN1CCN(CCCl)CCCl`, the T/C runs as follows: (dose: 6.48 mg/kg/injection, schedule: Q04DX003 (ip), vehicle: saline with Tween-80) 107 % of control; (dose: 10.8 mg/kg/injection, schedule: Q04DX003 (ip), vehicle: saline with Tween-80) 111 % of control.

In the case of `S=P(N1CC1)(N1CC1)N1CC1`, the T/C (dose: 0.75 mg/kg/injection, schedule: Q01DX010 (ip), vehicle: saline) is 91 % of control and 95 % of control; the T/C (dose: 1.5 mg/kg/injection, schedule: Q01DX010 (ip), vehicle: saline) is 91 % of control; the T/C (dose: 3.0 mg/kg/injection, schedule: Q01DX010 (ip), vehicle: saline) was 95 % of control; the T/C (dose: 6.0 mg/kg/injection, schedule: Q01DX010 (ip), vehicle: saline) was 91 % of control and 104 % of control.

Consider `CC[C@@]1(O)C[C@H](OC2CC(N(C)C)C(OC3CC(O)C(OC4CCC(=O)C(C)O4)C(C)O3)C(C)O2)c2c(cc3c(c2O)C(=O)c2c(O)ccc(O)c2C3=O)[C@H]1C(=O)OC` (stereo partly drawn), for which the T/C was 118 % of control (dose: 2.88 mg/kg/injection, schedule: Q04DX003 (ip), vehicle: water); 117 % of control (dose: 4.8 mg/kg/injection, schedule: Q04DX003 (ip), vehicle: water); 95 % of control (dose: 8.0 mg/kg/injection, schedule: Q04DX003 (ip), vehicle: water).

In the case of `Nc1nc2n[nH]nc2c(=O)[nH]1`, the T/C was 155 % of control and 170 % of control (dose: 25.0 mg/kg/injection, schedule: Q01DX010 (ip), vehicle: alkali diluted with saline); 162 % of control and 191 % of control (dose: 50.0 mg/kg/injection, schedule: Q01DX010 (ip), vehicle: alkali diluted with saline); 170 % of control and 204 % of control (dose: 100.0 mg/kg/injection, schedule: Q01DX010 (ip), vehicle: alkali diluted with saline); 177 % of control and 204 % of control (dose: 200.0 mg/kg/injection, schedule: Q01DX010 (ip), vehicle: alkali diluted with saline).

Regarding `COC1C(O)C(C)OC(OC2C(Oc3cccc4c(O)c5c(=O)oc6ccc(C)c7c(=O)oc(c34)c5c67)OC(C)C(O)C2O)C1O` (stereo not drawn), the T/C (dose: 43.2 mg/kg/injection, schedule: Q04DX003 (ip), vehicle: acid diluted with saline) is 121 % of control; the T/C (dose: 72.0 mg/kg/injection, schedule: Q04DX003 (ip), vehicle: acid diluted with saline) was 114 % of control; the T/C (dose: 200.0 mg/kg/injection, schedule: Q04DX003 (ip), vehicle: acid diluted with saline) was 123 % of control.

With `CCn1cnc2c(=S)nc[nH]c21`, the T/C by setting is: (dose: 15.6 mg/kg/injection, schedule: Q01DX010 (ip), vehicle: saline) 100 % of control and 109 % of control; under setting [3], 100 % of control; under setting [4], 100 % of control; under setting [5], 95 % of control.

With `Nc1nc(=S)c2ncn(C3OC(CO)C(O)C3O)c2[nH]1` (stereo not drawn), the T/C is 92 % of control under setting [1]; 107 % of control under setting [2]; 155 % of control (dose: 2.0 mg/kg/injection, schedule: Q01DX010 (ip), vehicle: saline); 110 % of control (dose: 4.0 mg/kg/injection, schedule: Q01DX010 (ip), vehicle: saline); 105 % of control (dose: 8.0 mg/kg/injection, schedule: Q01DX010 (ip), vehicle: saline); 100 % of control (dose: 16.0 mg/kg/injection, schedule: Q01DX010 (ip), vehicle: saline).

`O=C(Nc1ccc(C2=NCCN2)cc1)Nc1cccc(NC(=O)Nc2ccc(C3=NCCN3)cc2)c1`: the T/C under setting [6] is 179 % of control and 183 % of control; the T/C under setting [7] is 241 % of control and 279 % of control; the T/C (dose: 480.0 mg/kg/injection, schedule: Q01DX010 (ip), vehicle: saline) was 108 % of control and 116 % of control.

`CN(C)c1ccc(/C=C/c2ccnc3ccccc23)cc1`: the T/C is, setting by setting: (dose: 5.0 mg/kg/injection, schedule: Q01DX010 (ip), vehicle: saline) 92 % of control and 104 % of control; (dose: 10.0 mg/kg/injection, schedule: Q01DX010 (ip), vehicle: saline) 88 % of control and 96 % of control; (dose: 20.0 mg/kg/injection, schedule: Q01DX010 (ip), vehicle: saline) 104 % of control; (dose: 40.0 mg/kg/injection, schedule: Q01DX010 (ip), vehicle: saline) 96 % of control and 100 % of control.

With `CCCSc1ncnc2nc[nH]c12`, the T/C under setting [3] was 95 % of control; the T/C under setting [4] was 95 % of control; the T/C under setting [5] was 88 % of control and 95 % of control; the T/C (dose: 250.0 mg/kg/injection, schedule: Q01DX010 (ip), vehicle: saline) was 95 % of control.

As for `CC(C)[C@](O)(C(=O)OCC1=CC[N+]2([O-])CC[C@@H](O)[C@@H]12)[C@H](C)O` (stereo partly drawn), the T/C by setting is: (dose: 130.0 mg/kg/injection, schedule: Q01DX009 (ip), vehicle: water) 98 % of control; (dose: 216.0 mg/kg/injection, schedule: Q01DX009 (ip), vehicle: water) 106 % of control; (dose: 360.0 mg/kg/injection, schedule: Q01DX009 (ip), vehicle: water) 113 % of control; (dose: 600.0 mg/kg/injection, schedule: Q01DX009 (ip), vehicle: water) 107 % of control.

Take `Clc1ncnc2nc[nH]c12`: the T/C is 96 % of control and 119 % of control (dose: 7.5 mg/kg/injection, schedule: Q01DX010 (ip), vehicle: saline); 92 % of control and 107 % of control under setting [8]; 107 % of control under setting [9]; 92 % of control under setting [6].

Regarding `C[N+](C)(C)c1ncnc2nc[nH]c12`, the T/C by setting is: under setting [8], 100 % of control; under setting [9], 120 % of control; under setting [6], 113 % of control; under setting [7], 116 % of control.

For the molecule `COC(=O)[C@@]12OC[C@]34[C@H]([C@@H](O)[C@@H]1O)[C@@]1(C)CC(=O)C(O)=C(C)[C@@H]1C[C@H]3OC(=O)[C@H](OC(=O)/C=C(\C)C(C)C)[C@@H]24`, the T/C is 103 % of control (dose: 389.0 micrograms/kg/injection, schedule: Q01DX004 (ip), vehicle: saline + alcohol); 98 % of control (dose: 432.0 micrograms/kg/injection, schedule: Q01DX009 (ip), vehicle: saline + alcohol); 109 % of control (dose: 648.0 micrograms/kg/injection, schedule: Q01DX004 (ip), vehicle: saline + alcohol); 100 % of control (dose: 720.0 micrograms/kg/injection, schedule: Q01DX009 (ip), vehicle: saline + alcohol).
